Patent US20260193293A1, “PEPTIDES CAPABLE OF INHIBITING PROTEIN-PROTEIN INTERACTIONS AT GABAB1A SUBUNIT AND USES THEREOF” (UNIVERSITY OF COPENHAGEN, priority 2022, published 2026)
Read-outs that look alike come from different tables or passages of the source. Non-standard residues stand in square brackets, D forms with d. Residues, ends and D or L forms follow the SMILES beside them. 2Nal = N[C@@H](Cc1ccc2ccccc2c1)C(=O)O

Assays:
[1] = molecular target: Sushi domains (SD1/2) protein; assay: Fluorescence polarization (FP) competition assay with AJAP-1probe, calculated Ki; assay type: binding
Method in brief: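 Ki values were derived from IC50s (sigmoidal fits, ≥ triplicate), with probe Kd obtained by saturation titration of SD1/2. Peptides displaced a 25 nM TAMRA-labelled probe; polarization read at 530/580 nm in 1% BSA-containing PBS, pH 7.4, room temperature.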

[2] = molecular target: T1, GB1a subunit (Mus musculus, UniProt Q9WV18); assay: Pull-down from mouse brain membrane fraction, immunoblotting; assay type: binding; details: immobilized peptides, whole-brain lysate
T1 construct: using the homogenized membrane fraction of wild type mouse brains; from tissue; host or cells: adult mouse brain, solubilized membrane-enriched fraction
T1 sequence (Q9WV18 20-960): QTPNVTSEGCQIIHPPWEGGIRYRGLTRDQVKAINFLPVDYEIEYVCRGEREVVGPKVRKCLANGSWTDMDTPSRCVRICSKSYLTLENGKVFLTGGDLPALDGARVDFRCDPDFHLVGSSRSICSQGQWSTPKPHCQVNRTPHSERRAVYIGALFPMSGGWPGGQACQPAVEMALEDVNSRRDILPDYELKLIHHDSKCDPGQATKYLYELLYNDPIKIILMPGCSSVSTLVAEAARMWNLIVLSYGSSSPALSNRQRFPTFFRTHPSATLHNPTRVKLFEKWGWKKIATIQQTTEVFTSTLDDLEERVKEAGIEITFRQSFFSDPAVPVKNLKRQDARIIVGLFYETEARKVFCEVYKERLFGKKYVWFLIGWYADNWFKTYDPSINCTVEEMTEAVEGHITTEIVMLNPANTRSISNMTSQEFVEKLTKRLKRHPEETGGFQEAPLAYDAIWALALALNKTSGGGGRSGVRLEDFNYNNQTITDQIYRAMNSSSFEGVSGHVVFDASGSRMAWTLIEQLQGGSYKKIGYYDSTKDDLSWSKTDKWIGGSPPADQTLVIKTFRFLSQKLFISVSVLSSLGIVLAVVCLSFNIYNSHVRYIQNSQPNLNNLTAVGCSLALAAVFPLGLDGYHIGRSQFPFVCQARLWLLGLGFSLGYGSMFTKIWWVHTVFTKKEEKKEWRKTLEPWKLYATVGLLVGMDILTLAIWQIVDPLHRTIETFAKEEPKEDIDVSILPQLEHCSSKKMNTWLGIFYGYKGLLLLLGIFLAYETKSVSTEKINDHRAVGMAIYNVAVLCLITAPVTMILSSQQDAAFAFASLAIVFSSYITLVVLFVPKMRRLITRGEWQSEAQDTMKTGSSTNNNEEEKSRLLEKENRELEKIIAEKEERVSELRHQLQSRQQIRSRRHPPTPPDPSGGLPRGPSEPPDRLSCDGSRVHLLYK
Protocol: Covalent immobilization of peptides. Peptides AJAP-1WT, 17 and 20 comprising a C-terminal Cys and a PEG2 linker, were loaded covalently to Dynabeads M-270 Epoxy beads (Thermo Fischer Scientific) according to the protocol of the manufacturer. 25 μL DMSO stocks of peptides (10 mM) were diluted 15 times into 350 μL coupling buffer (100 mM PBS buffer containing 2 M […] and 10 mM TCEP, PH=7.4) and agitated overnight at 37° C. with Dynabeads M-270 Epoxy beads (5 mg, ~3.3×10^8 beads), which had been washed and equilibrated with coupling buffer before. After removing excess peptides, the Dynabeads M-270 Epoxy beads were washed three times and equilibrated with 100 mM PBS buffer, pH=7.4 and stored at 4° C.
Preparation of whole-brain lysates. Dissected adult mouse brains were placed in ice-cold homogenization buffer (320 mM sucrose, 4 mM HEPES, PH 7.5, 1 mM EDTA, 1 mM EGTA, supplemented with complete EDTA-free protease inhibitor mixture (Roche), 1 mL per 100 mg of brain) and homogenized with a glass-Teflon homogenizer (40 passes) on ice. The homogenized material was cleared by centrifugation at 500×g (4° C., 15 min). […]

[3] = molecular target: T2, GB1a/2 receptors (Homo sapiens, UniProt Q9UBS5); assay: SRE-Luciferase accumulation assay; assay type: cell-based; details: in the absence of AJAP-1
T2 construct: Flag; expressed in transfected cells; host or cells: HEK293T cells stably expressing chimeric Gαq/i
T2 sequence (Q9UBS5 15-961 limits assumed): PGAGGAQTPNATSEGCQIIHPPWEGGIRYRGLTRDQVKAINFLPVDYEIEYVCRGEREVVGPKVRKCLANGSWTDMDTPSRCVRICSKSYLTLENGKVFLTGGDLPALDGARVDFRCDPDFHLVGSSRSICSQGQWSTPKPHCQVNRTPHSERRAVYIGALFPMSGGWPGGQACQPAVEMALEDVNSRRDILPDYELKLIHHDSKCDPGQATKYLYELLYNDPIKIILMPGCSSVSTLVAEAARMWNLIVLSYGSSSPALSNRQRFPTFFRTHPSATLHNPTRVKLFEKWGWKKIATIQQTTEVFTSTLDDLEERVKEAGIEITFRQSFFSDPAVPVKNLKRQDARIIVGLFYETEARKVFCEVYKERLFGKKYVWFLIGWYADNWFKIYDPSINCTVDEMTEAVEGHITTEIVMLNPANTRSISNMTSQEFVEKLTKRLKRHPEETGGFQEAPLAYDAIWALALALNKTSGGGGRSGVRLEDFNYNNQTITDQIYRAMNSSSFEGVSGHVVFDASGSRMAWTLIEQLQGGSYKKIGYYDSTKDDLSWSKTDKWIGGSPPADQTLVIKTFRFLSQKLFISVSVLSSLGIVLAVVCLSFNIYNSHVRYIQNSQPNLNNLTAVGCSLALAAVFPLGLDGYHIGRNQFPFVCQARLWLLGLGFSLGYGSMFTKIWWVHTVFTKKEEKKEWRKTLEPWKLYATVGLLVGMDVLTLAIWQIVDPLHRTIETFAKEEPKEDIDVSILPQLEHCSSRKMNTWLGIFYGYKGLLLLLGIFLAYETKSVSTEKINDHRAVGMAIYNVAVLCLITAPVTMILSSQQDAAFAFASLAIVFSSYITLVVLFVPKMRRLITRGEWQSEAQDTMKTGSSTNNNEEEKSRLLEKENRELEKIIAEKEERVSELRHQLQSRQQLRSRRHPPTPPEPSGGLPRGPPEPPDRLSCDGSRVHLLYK
T2 sequence (O75899 42-941 partner): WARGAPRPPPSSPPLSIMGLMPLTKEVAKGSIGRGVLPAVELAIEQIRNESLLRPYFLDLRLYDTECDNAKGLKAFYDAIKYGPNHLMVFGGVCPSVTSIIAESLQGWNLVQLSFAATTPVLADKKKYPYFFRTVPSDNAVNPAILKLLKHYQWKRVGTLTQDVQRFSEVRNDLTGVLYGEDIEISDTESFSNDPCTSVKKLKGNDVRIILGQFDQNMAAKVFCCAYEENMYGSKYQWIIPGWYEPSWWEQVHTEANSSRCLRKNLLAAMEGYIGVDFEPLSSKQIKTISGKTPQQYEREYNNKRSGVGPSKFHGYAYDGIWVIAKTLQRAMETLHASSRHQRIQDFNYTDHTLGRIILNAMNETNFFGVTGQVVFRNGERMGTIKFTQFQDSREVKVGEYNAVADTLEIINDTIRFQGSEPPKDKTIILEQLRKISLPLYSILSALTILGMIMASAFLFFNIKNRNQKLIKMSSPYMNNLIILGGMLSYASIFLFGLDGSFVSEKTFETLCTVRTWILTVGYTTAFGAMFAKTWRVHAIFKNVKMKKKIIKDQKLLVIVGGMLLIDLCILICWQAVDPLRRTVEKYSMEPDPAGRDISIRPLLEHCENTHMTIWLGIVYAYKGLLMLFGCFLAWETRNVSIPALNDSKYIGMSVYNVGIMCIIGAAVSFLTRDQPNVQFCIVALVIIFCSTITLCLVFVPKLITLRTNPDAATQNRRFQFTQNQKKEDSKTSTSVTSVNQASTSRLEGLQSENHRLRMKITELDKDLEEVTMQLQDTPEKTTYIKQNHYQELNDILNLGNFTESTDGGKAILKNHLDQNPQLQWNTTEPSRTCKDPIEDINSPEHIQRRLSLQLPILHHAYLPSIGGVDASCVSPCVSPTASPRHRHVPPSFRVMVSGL
From the text: (§1) To elucidate whether our developed peptides AJAP-1WT, 16 and 20 could interact and disrupt the trans-interaction between AJAP-1 and GB1a/2Rs, we used an established accumulation assay based on coupling GB1a/2Rs to phospholipase C (PLC) via chimeric Gαqi (Conklin et al. 1993). PLC activity is then monitored with a serum responsive element-luciferase (SRE-Luciferase) reporter amplifying the GB1a/2Rs response (Yoo et al. 2017) (FIG. 5).
(§2) HEK293T cells stably expressing Gαq/i were transiently transfected with Flag-GB1a, Flag-GB2 and SRE-FLuc with or without AJAP-1. In order to ensure GB1a/2 binding of AJAP-1 in trans, a pool of HEK293T-Gαq/i cells expressing AJAP-1 was mixed with HEK293-Gαq/i cells expressing Flag-GB1a, Flag-GB2 and SRE-FLuc. Transfected cells were distributed into 96-well microplates (Greiner Bio-One) at a density of 80,000 cells/well. After 24 h, the culture medium was replaced with Opti-MEM™-GlutaMAX™ Peptides were incubated in Opti-MEM™-GlutaMAX™ for 10 minutes. In presence of peptide, GB1a/2 receptors were activated with various concentrations of GABA for 6 h. FLuc activity in lysed cells was measured using the Luciferase® Assay Kit (Promega) and a Spark® microplate reader. Luminescence signals were adjusted by subtracting the luminescence obtained when expressing SRE-FLuc fusion proteins alone.

[4] = molecular target: T3, GB1a/2 receptors in presence of AJAP-1 in trans (Homo sapiens, UniProt Q9UBS5); assay: SRE-Luciferase accumulation assay; assay type: cell-based; details: 10 μM peptide; for basal activity of GB1a/2Rs: in presence of AJAP-1 in trans
T3 construct: Flag; expressed in transfected cells; host or cells: HEK293T cells stably expressing chimeric Gαq/i
T3 sequence (Q9UBS5 15-961 limits assumed): as the sequence (Q9UBS5 15-961 limits assumed) above
T3 sequence (O75899 42-941 partner): as the sequence (O75899 42-941 partner) above
From the text: as §1, §2

[5] = human, plasma
Protocol: For time-course assay, 360 μL human plasma was pre-warmed up at 37° C. for 15 min and then spiked with 40 μL of tested peptides (1 mM in 1×PBS). […] Subsequently, 100 μL acetonitrile was added into and then samples were incubated overnight at −20° C. After that, all samples were centrifuged at 13,400 rpm for 10 min and the supernatant was filtered and then analyzed by LC-MS and UPLC (Waters). The area under the curve (AUC) was determined and normalized to the value of the first time point. The half-life (T1/2) was obtained by fitting the data to the one-phase decay equation in GraphPad Prism 9 and expressed as the mean of three individual experiments. For end-point assay, 108 μL human plasma was pre-warmed up at 37° C. for 15 min and then spiked with 12 μL of tested peptides (1 mM in 1×PBS).

[6] = test system: HeLa cell line stably expressing HaloTag-GFP fusion protein; assay: Chloroalkane penetration assay (CAPA); assay type: in vitro ADME; details: cell membrane permeability, CA-tagged peptides, mean ± SEM, n ≥ 3
Protocol: The HeLa cell line used for CAPA assay was generated by Chenoweth and co-workers and provided by Kritzer and co-workers. The cells stably express a HaloTag-GFP fusion protein anchored through a mitochondria targeting peptide exposed to the cytosol. For CAPA, Hela cells were seeded using DMEM supplemented with FBS in a 96-well plate one day before the experiment at a density of 4×10^4 cells/well. Just before the assay, the growth media was aspirated off and replaced with Opti-MEM assay media (100 μL/well). DMSO stocks of peptides (10 mM) were diluted in Opti-MEM to prepare serial dilutions of peptides in a separate 96-well PCR plate ensuring the final concentration of DMSO was kept consistent and below 1%. Subsequently, 25 μL of peptide solution was added into each well and the plate was incubated for 4 h at 37° C. with 5% CO2. After aspirating the assay media off, cells were washed with fresh Opti-MEM (80 μL/well) for 15 min at rt. Following removal of the washing media, cells were incubated with 5 μM CA-TAMRA in Opti-MEM (50 μL/well) for 15 min. Non CATAMRA control wells were incubated with Opti-MEM alone (50 μL/well). […] After aspiration, cells were trypsinized using clear Trypsin (20 μL/well, 10 min at 37° C.), resuspended in PBS containing 2% FBS ([…]), and analyzed using a benchtop flow cytometer (Guava EasyCyte, EMD Millipore).

[7] = CPP tagged peptides overview, SD1/2 binding affinity, mean ± SEM, n ≥ 3, read-out: Ki

Compound	Ki ([1]; purified peptides, read-out: Ki) [nM]	pull-down of native GB1a [2]	Emax values of GABA-activated GB1a/2Rs [3]	basal activity of GB1a/2Rs [4]	half-life [5] [h]	Ki [1, 7] [nM]	Ki ([1]; Table 1, affinity maturation, mean ± SEM, n ≥ 3, read-out: Ki) [nM]	Ki ([1]; Table 13, peptides for affinity maturation, read-out: Ki (nM) mean ± SEM) [nM]	reduction of negative allosteric modulation effects of AJAP-1 at GB1a/2Rs in trans [4]	Ki ([1]; Table 16, ncAAs incorporated peptides, read-out: Ki (nM) mean ± SEM) [nM]	Ki ([1]; Table 14, CPPs tagged peptides, read-out: Ki (nM) mean ± SEM) [nM]	CP50 [6] [µM]
CC[C@H](C)[C@H](NC(=O)[C@H](Cc1ccccc1)NC(=O)[C@H](CCC(=O)O)NC(=O)[C@@H](NC(=O)[C@H](CCC(=O)O)NC(C)=O)[C@@H](C)O)C(=O)N[C@@H](C)C(=O)N[C@@H](Cc1c[nH]c2ccccc12)C(=O)NCC(=O)N1CCC[C@H]1C(=O)N[C@H](C(=O)NCC(=O)N[C@@H](CC(=O)O)C(=O)N[C@@H](CCC(=O)O)C(=O)N[C@@H](CC(=O)O)C(N)=O)[C@@H](C)O [AJAP-1WT, Ac-ETEFIAWGPTGDED-NH2] (Ac-ETEFIAWGPTGDED-NH2)	31 ± 1	ability to bind and enrich full-length GB1a subunit	did not affect the Emax values	elevated basal activity	> 48							
CC[C@H](C)[C@H](NC(=O)[C@H](Cc1c[nH]c2ccccc12)NC(=O)[C@H](CC(=O)O)NC(=O)[C@H](CC(=O)O)NC(=O)[C@H](CC(=O)O)NC(=O)[C@H](CCC(=O)O)NC(C)=O)C(=O)N[C@@H](CC(=O)O)C(=O)N[C@@H](Cc1c[nH]c2ccccc12)C(=O)N[C@@H](Cc1ccc(O)cc1)C(=O)N[C@@H](CC(=O)O)C(=O)N[C@@H](CO)C(=O)N[C@@H](CC(=O)O)C(=O)N[C@@H](CC(=O)O)C(=O)N[C@@H](CC(=O)O)C(N)=O [Peptide 16] (Ac-EDDDWIDWYDSDDD-NH2)			did not affect the Emax values	elevated basal activity	> 48	3.2 ± 0.2	3.2 ± 0.2	3.2 ± 0.2	to a greater extent than AJAP-1WT peptide			
CC[C@H](C)[C@H](NC(=O)[C@H](CC(=O)O)NC(=O)[C@H](CC(=O)O)NC(=O)[C@H](Cc1ccc(O)cc1)NC(=O)[C@H](CC(=O)O)NC(=O)[C@H](CC(=O)O)NC(=O)[C@H](CO)NC(=O)[C@H](CC(=O)O)NC(=O)[C@H](CCC(=O)O)NC(=O)[C@H](Cc1ccc2ccccc2c1)NC(C)=O)C(=O)N[C@@H](CC(=O)O)C(=O)N[C@@H](CC(=O)O)C(=O)N[C@@H](CC(=O)O)C(=O)N[C@@H](Cc1c[nH]c2ccccc12)C(N)=O [Scr-20, reference compound] (Ac-[2Nal]EDSDDYDDIDDDW-NH2)		did not interact with the GB1a subunit	did not affect the Emax values	significant decreased basal activity						31200 ± 989		
DDDWIDWYDSDDDYGRKKRRQRRR [Peptide 16-Tat]						71 ± 1					70.5 ± 0.3	19 ± 0.4
